Columns and labels:
NCI-H226 = experiment: NCI single-dose GI%, NSC lung; format: cell-based, human; settings: 10.0 μM in one dose
SN12C = experiment: NCI single-dose GI%, renal; format: cell-based, human; settings: 10.0 μM in one dose
TK-10 = experiment: NCI single-dose GI%, renal; format: cell-based, human; settings: TK-10, renal; 10.0 μM in one dose
[1] = system: breast adenocarcinoma MCF-7; settings: human, 48 h
HS 578T = experiment: NCI single-dose GI%, breast; format: cell-based, human; settings: 10.0 μM in one dose

IC50 [1]	SMILES	GI% (NCI-H226)	GI% (SN12C)	GI% (TK-10)	GI% (HS 578T)
12.5 ± 0.55 µM	CS(=O)(=O)c1ccc(C(=O)N2N=C(c3ccccc3)CC2c2ccccc2O)cc1 (centres unmarked) [Compound 18h, (5-(2-Hydroxyphenyl)-3-phenyl-4,5-dihydro-1H-pyrazol-1-yl)(4-(methylsulfonyl)phenyl)methanone]	15%	17%	25%	–
–	Cc1ccc(C2=NN(C(=O)c3ccc(S(C)(=O)=O)cc3)C(c3ccc(C)cc3)C2)cc1 (centres unmarked) [Compound 18g, (3,5-Bis(4-tolyl)-4,5-dihydro-1H-pyrazol-1-yl)(4-(methylsulfonyl)phenyl)methanone]	–	–	–	15%

— publication PMC11240878, “Synthesis, enzyme inhibition assay, and molecular modeling study of novel pyrazolines linked to 4-methylsulfonylphenyl scaffold: antitumor activity and cell cycle analysis” (RSC Advances, 2024)
